Assays:
C. albicans = assay type: in vivo; conditions: immunocompromised mice; for Survival rate: 7 days after fatal dose of C. albicans by tail vein at week 8; for Survival number after 7 days: fatal dose of C. albicans by tail vein at week 8, 20 mice per group, fluconazole 50 mg/kg d intragastric for 7 days
[1] = tested on: Th17 cells (cytokine IL-17F); conditions: in words; after immunization vs. blank control group
Method: The effectiveness of the vaccine was studied by using an immunocompromised (neutropenia) mouse model. […] To investigate the T cell-mediated immune response, mouse blood was taken and detected for a change in cytokine IL-17F level in Th17 cells to evaluate the immunogenicity of chitosan oligosaccharide-carrier protein vaccine.
6-8-week-old Balb/c female mice were selected, and adaptively fed for 3-7 d. 20 g/L cyclophosphamide was prepared with normal saline, and the cyclophosphamide was injected intraperitoneally by body weight of 200 mg/kg. The number of neutrophils in the mouse blood was measured by a SYSMEX XT-2000i automatic blood analyzer after 3 days. If the number of the neutrophils was <500/mm^3, the experiment could be continued. After that, the cyclophosphamide was injected every 10 days at a dose of 150 mg/kg, which was maintained throughout the test period.
A normal saline blank control group, a KLH group, a chitosan oligosaccharide group, a chitosan oligosaccharide-KLH group in Example 6, a fluconazole group (as a positive control of a challenge test) were set up, with 10 mice in each group. At weeks 0, 2, 4 and 6 at the start of the experiment, the mice were injected subcutaneously from multiple points on the neck and back, with an injection amount of 2.5 mg/kg. The normal saline blank group was injected with normal saline, and the fluconazole group was not injected. […]

Row | Molecule | Survival rate (C. albicans) [%] | Survival number after 7 days (C. albicans) | Change of proportion of intracellular IL-17F compared with blank control group [1]
1 | OC(Cn1cncn1)(Cn1cncn1)c1ccc(F)cc1F [Fluconazole, fluconazole, reference compound] | 50 | 10 | 
2 | keyhole limpet hemocyanin [KLH] | 30 | 6 | increased to a certain extent

Source: patent US20240207396A1 (priority 2021, published 2024)
